Consider four compounds from patent US11206830B2, “Herbicidal composition comprising glufosinate or a salt thereof and pyroxasulfone” (BASF SE, priority 2008, dated 2021).

Several values for one entry are separate records, joined by “and”; a condition that tells them apart may be missing. Equal entries are not always repeated. Where two headings read alike, the source gives them in different places.

Common to all, as to format: in vivo
One test deals with Sinapis arvensis (SINAR). Nature of the test: greenhouse post-emergence herbicidal activity on SINAR. The source says:
(§1) For the post-emergence treatment, the test plants were first grown to a height of 3 to 20 cm, depending on the plant habit, and only then treated. Here, the herbicidal compositions were suspended or emulsified in water as distribution medium and sprayed using finely distributing nozzles.
(§2) The respective herbicides B and/or safener were formulated as 10% by weight strength suspension concentrate and introduced to the spray liquor with the amount of solvent system used for applying the active compound. Herbicides A, C and/or safener were used as commercially available formulations and introduced to the spray liquor with the amount of solvent system used for applying the active compound. In the examples, the solvent used was water.
(§3) The test period extended over 21 days. During this time, the plants were tended, and their response to the treatments with active compound was evaluated.
(§4) The evaluation for the damage caused by the chemical compositions was carried out using a scale from 0 to 100%, compared to the untreated control plants. […]
(§5) The value E, which is to be expected if the activity of the individual compounds is just additive, was calculated using the method of S. R. Colby (1967) “Calculating synergistic and antagonistic responses of herbicide combinations”, Weeds 15, p. […] For two component mixtures the value E was calculated by the following formula E=X+Y−(X·Y/100)
(§6) For three component mixtures the value E was calculated by the following formula E=X+Y+Z−(XY+XZ+YZ)/100+(X·YZ/10000) where X=effect in percent using herbicide A at an application rate a; • Y=effect in percent using herbicide B at an application rate b; • Z=effect in percent using herbicide C at an application rate c; • E=expected effect (in %) of A+B at application rates a+b. or • E=expected effect (in %) of A+B+C at application rates a+b+c.
(§7) If the value observed in this manner is higher than the value E calculated according to Colby, a synergistic effect is present.
(§8) Tables 1 to 12 relate to the herbicidal activity of the individual actives and of their combinations in post-emergence application assessed 20 DAT.

The test system of test [1] is Digitaria sanguinalis (DIGSA). Nature of the test: greenhouse post-emergence herbicidal activity on DIGSA.
From the text: as §1, §2, §3
(§9) The evaluation for the damage caused by the chemical compositions was carried out using a scale from 0 to 100%, compared to the untreated control plants. Here, 0 means no damage and 100 means complete destruction of the plants.
(§10) The value E, which is to be expected if the activity of the individual compounds is just additive, was calculated using the method of S. R. Colby (1967) “Calculating synergistic and antagonistic responses of herbicide combinations”, Weeds 15, p. 22 ff. For two component mixtures the value E was calculated by the following formula E=X+Y−(X·Y/100)
as §6, §7, §8

The subject of test [2] is Abutilon theophrasti (ABUTH). Nature of the test: greenhouse post-emergence herbicidal activity on ABUTH.
From the text: as §1, §2, §3, §9, §10, §6, §7, §8

In test [3] the test system is Alopecurus myosuroides (ALOMY). Briefly: greenhouse post-emergence herbicidal activity on ALOMY.
From the text: as §1, §2, §3, §9, §10, §6, §7, §8

Test [4] deals with Chenopodium album (CHEAL). Briefly: greenhouse post-emergence herbicidal activity on CHEAL.
From the text: as §1, §2, §3, §9, §10, §6, §7, §8

In test [5] the test system is Lolium multiflorum (LOLMU). Briefly: greenhouse post-emergence herbicidal activity on LOLMU.
From the text: as §1, §2, §3, §9, §10, §6, §7, §8

In test [6] the test system is Matricaria inermis (MATIN). Nature of the test: greenhouse post-emergence herbicidal activity on MATIN.
From the text: as §1, §2, §3, §9, §10, §6, §7, §8

The subject of the next test is Galium aparine (GALAP). Briefly: greenhouse post-emergence herbicidal activity on GALAP. As to conditions: solo application.
From the text: as §1, §2, §3, §9, §10, §6, §7, §8

Test [7] relates to Echinochloa crus-galli (ECHCG). Nature of the test: greenhouse post-emergence herbicidal activity on ECHCG.
From the text: as §1, §2, §3, §4, §5, §6, §7, §8

For another test, the system named is Setaria viridis (SETVI). Briefly: greenhouse post-emergence herbicidal activity on SETVI. As to conditions: 480 h, read-out: % activity 20 DAT.
From the text: as §1, §2, §3, §4, §5, §6, §7, §8

Another test relates to Avena fatua (AVEFA). Nature of the test: greenhouse post-emergence herbicidal activity on AVEFA. As to conditions: 480 h, read-out: % activity 20 DAT.
From the text: as §1, §2, §3, §9, §10, §6, §7, §8

Test [8] deals with Amaranthus retroflexus (AMARE). Nature of the test: greenhouse post-emergence herbicidal activity on AMARE. Particulars: 480 h, read-out: % activity 20 DAT.
From the text: as §1, §2, §3, §4, §5, §6, §7, §8

Test [9] concerns Polygonum convolvulus (POLCO). Nature of the test: greenhouse post-emergence herbicidal activity on POLCO.
From the text: as §1, §2, §3, §9, §10, §6, §7, §8

Setting [10] is: Digitaria sanguinalis, 480 h, read-out: % activity 20 DAT.
[11] abbreviates: Fallopia convolvulus, 480 h, read-out: % activity 20 DAT.

For `COC[C@H](C)N(C(=O)CCl)c1c(C)csc1C` [dimethenamid-P], the “% activity 20 DAT” value worked out at 45% with Sinapis arvensis (SINAR) (solo application, 135 g ai/ha); 50% in test [1] (solo application, 135 g ai/ha); 50% in [1] (solo application, 270 g ai/ha); 15% in test [2] (solo application, 135 g ai/ha); 15% in test [2] (solo application, 540 g ai/ha); 20% in [3] (solo application, 270 g ai/ha). Moreover, the “% activity 20 DAT” value in test [3] (solo application, 540 g ai/ha) is on record as 30%; in test [4] (solo application, 270 g ai/ha) it was 20%; in test [5] (solo application, 135 g ai/ha), 60%; in [6] (solo application, 135 g ai/ha), 0%; in [6] (solo application, 270 g ai/ha), 0%.

As for `O=C(O)CNCP(=O)(O)O` [glyphosate, N-(phosphonomethyl)glycine], the “% activity 20 DAT” value with Galium aparine (GALAP) (50 g ai/ha) is 10%; in test [3] (solo application, 50 g ai/ha), 15%; in test [3] (solo application, 100 g ai/ha), 30%; in [4] (solo application, 50 g ai/ha), 30%; in test [4] (solo application, 100 g ai/ha), 50% and 85%; in [5] (solo application, 50 g ai/ha), 45%. Also, the “% activity 20 DAT” value in [6] (solo application, 50 g ai/ha) is reported as 65%. Besides, the inhibition at 50 g/ha came to 80% in the test on Sinapis arvensis (SINAR) (Mutarda arvensis, 480 h, read-out: % activity 20 DAT); 30% in test [7] (Echinochloa crus-galli, 480 h, read-out: % activity 20 DAT); 70% in the test on Setaria viridis (SETVI); 70% in test [1] (setting [10]); 90% in [8]; 0% in [2] (Abutilon theophrasti, 480 h, read-out: % activity 20 DAT, post-emergence, solo application, 50 g ai/ha). Further, the inhibition at 50 g/ha amounted to 20% in test [3] (Alopecurus myosuroides, 480 h, read-out: % activity 20 DAT, post-emergence, solo application, 50 g ai/ha); 40% in [4] (Chenopodium album, 480 h, read-out: % activity 20 DAT, post-emergence, solo application, 50 g ai/ha); 40% in [5] (Lolium multiflorum, 480 h, read-out: % activity 20 DAT, post-emergence, solo application, 50 g ai/ha); 30% in test [9] (setting [11]). Also, the inhibition at 100 g/ha in test [1] (setting [10]) worked out at 85%; in the test with Avena fatua (AVEFA), 45%; in [3] (Alopecurus myosuroides, 480 h, read-out: % activity 20 DAT, post-emergence, solo application, 100 g ai/ha), 40%; in test [5] (Lolium multiflorum, 480 h, read-out: % activity 20 DAT, post-emergence, solo application, 100 g ai/ha), 75%; in test [6] (Matricaria, 480 h, read-out: % activity 20 DAT, post-emergence, solo application, 100 g ai/ha) it was 90%; in test [9] (setting [11]) it was 50%. For the same compound, the inhibition at 200 g/ha in test [2] (Abutilon theophrasti, 480 h, read-out: % activity 20 DAT, post-emergence, solo application, 200 g ai/ha) turned out to be 70%; in test [3] (Alopecurus myosuroides, 480 h, read-out: % activity 20 DAT, post-emergence, solo application, 200 g ai/ha), 85%; in test [4] (Chenopodium album, 480 h, read-out: % activity 20 DAT, post-emergence, solo application, 200 g ai/ha), 80%; in [9] (setting [11]) it was 50%. In addition, the inhibition at 400 g/ha in [6] (Matricaria, 480 h, read-out: % activity 20 DAT, post-emergence, solo application, 400 g ai/ha) is 95%; in test [9] (setting [11]), 90%.

For the compound `Cn1nc(C(F)(F)F)c(CS(=O)(=O)C2=NOC(C)(C)C2)c1OC(F)F` [pyroxasulfone, 3-[5-(difluoromethoxy)-1-methyl-3-(trifluoromethyl)pyrazol-4-ylmethylsulfonyl]-4,5-dihydro-5,5-dimethyl-1,2-oxazole], the inhibition at 25 g/ha with Galium aparine (GALAP) (Galium aparine, 480 h, 25 g ai/ha, read-out: % activity 20 DAT) is 80%; in test [1] (Digitaria sanguinalis, 480 h, solo application, 25 g ai/ha, read-out: % activity 20 DAT), 50%; in the test with Avena fatua (AVEFA) (solo application, 25 g ai/ha) it was 75%; in test [3] (Alopecurus myosuroides, 480 h, solo application, 25 g ai/ha, read-out: % activity 20 DAT), 50%; in [5] (Lolium multiflorum, 480 h, solo application, 25 g ai/ha, read-out: % activity 20 DAT), 50%; in test [6] (Matricaria, 480 h, solo application, 25 g ai/ha, read-out: % activity 20 DAT), 0%. Besides, the inhibition at 25 g/ha in [9] (Fallopia convolvulus, 480 h, solo application, 25 g ai/ha, read-out: % activity 20 DAT) was found to be 50%. The “% activity 20 DAT” value with Galium aparine (GALAP) (12.5 g ai/ha) was 70% and 40%; with Galium aparine (GALAP) (25 g ai/ha), 85%; in test [2] (solo application, 12.5 g ai/ha), 60%; in test [2] (solo application, 25 g ai/ha), 65%; in test [3] (solo application, 12.5 g ai/ha), 40%; in test [3] (solo application, 25 g ai/ha), 70%. Also, the “% activity 20 DAT” value was determined as 35% in test [4] (solo application, 12.5 g ai/ha) and 55% in test [5] (solo application, 12.5 g ai/ha). Further, the inhibition at 12.5 g/ha stood at 65% with Sinapis arvensis (SINAR) (Mutarda arvensis, 480 h, solo application, 12.5 g ai/ha, read-out: % activity 20 DAT); 75% in test [7] (Echinochloa crus-galli, 480 h, solo application, 12.5 g ai/ha, read-out: % activity 20 DAT); 70% in the test on Setaria viridis (SETVI) (solo application, 12.5 g ai/ha); 40% in test [1] (Digitaria sanguinalis, 480 h, solo application, 12.5 g ai/ha, read-out: % activity 20 DAT); 75% in test [8] (solo application, 12.5 g ai/ha); 40% in test [2] (Abutilon theophrasti, 480 h, solo application, 12.5 g ai/ha, read-out: % activity 20 DAT). In addition, the inhibition at 12.5 g/ha in [3] (Alopecurus myosuroides, 480 h, solo application, 12.5 g ai/ha, read-out: % activity 20 DAT) was 30%; in test [4] (Chenopodium album, 480 h, solo application, 12.5 g ai/ha, read-out: % activity 20 DAT), 20%; in test [5] (Lolium multiflorum, 480 h, solo application, 12.5 g ai/ha, read-out: % activity 20 DAT) it was 50%; in test [6] (Matricaria, 480 h, solo application, 12.5 g ai/ha, read-out: % activity 20 DAT), 0%; in test [9] (Fallopia convolvulus, 480 h, solo application, 12.5 g ai/ha, read-out: % activity 20 DAT), 35%. The inhibition at 50 g/ha in test [2] (Abutilon theophrasti, 480 h, solo application, 50 g ai/ha, read-out: % activity 20 DAT) was found to be 70%; in test [3] (Alopecurus myosuroides, 480 h, solo application, 50 g ai/ha, read-out: % activity 20 DAT), 50%; in [4] (Chenopodium album, 480 h, solo application, 50 g ai/ha, read-out: % activity 20 DAT), 20%; in test [9] (Fallopia convolvulus, 480 h, solo application, 50 g ai/ha, read-out: % activity 20 DAT), 50%. For the same compound, the inhibition at 100 g/ha in test [6] (Matricaria, 480 h, solo application, 100 g ai/ha, read-out: % activity 20 DAT) amounted to 15%; in test [9] (Fallopia convolvulus, 480 h, solo application, 100 g ai/ha, read-out: % activity 20 DAT), 65%.

Regarding `CC(C)N(C)S(=O)(=O)NC(=O)c1cc(-n2c(=O)cc(C(F)(F)F)n(C)c2=O)c(F)cc1Cl` [saflufenacil], the “% activity 20 DAT” value in the test on Galium aparine (GALAP) (3.13 g ai/ha) was 30%; in test [7] (solo application, 1.56 g ai/ha), 0%; in [1] (solo application, 1.56 g ai/ha) it was 0%; in test [2] (solo application, 1.56 g ai/ha), 45%; in test [3] (solo application, 1.56 g ai/ha), 0%; in test [3] (solo application, 3.13 g ai/ha) it was 0%. Moreover, the “% activity 20 DAT” value in [4] (solo application, 1.56 g ai/ha) was 40%; in [6] (solo application, 1.56 g ai/ha), 20%; in [6] (solo application, 3.13 g ai/ha) it was 55%; in [9] (solo application, 1.56 g ai/ha), 45%; in test [9] (solo application, 3.13 g ai/ha) it was 55%.
